Laboratory results taken from patent US7872030B2, “Use of 2-[5-(4-fluorophenyl)-3-pyridylmethylaminomethyl]-chromane and its physiologically acceptable salts” (Merck Patent GmbH, priority 2001, dated 2011).

Key:
[1] = system: neuroleptics sensitized monkey; assay: Neuroleptics sensitized monkey; assay type: in vivo; settings: after haloperidol challenge
Text: Another typical animal model is the neuroleptics sensitized monkey according to D. E. Casey, Psychopharmacology, 1996; 124: 134-140. Monkeys treated repeatedly with conventional neuroleptics are highly sensitive to a subsequent challenge dose of neuroleptic drugs. When challenged, the monkeys immediately show extrapyramidal motor side effects such as dystonia, dyskinesias, akathisia, and bradykinesia which are rated by a scoring system. The conventional neuroleptic drug haloperidol is given as a challenge.

[2] = system: Parkinsonian cynomolgus monkey; assay: MPTP Parkinsonian cynomolgus monkey, Laval University Disability Scale; assay type: in vivo; settings: MPTP monkeys
Text: A typical animal model for idiopathic Parkinson's disease is the Parkinsonian cynomolgus monkey according to P. J. Blanchet et al., Exp. Neurology 1998; 153: 214-222. Monkeys render parkinsonian by repeated injections of 1-methyl-4-phenyl-1,2,3,6-tetrahydropyridine (MPTP). Parkinsonian symptoms are qualitatively assessed by the use of the Laval University Disability Scale (B. Gomez-Mancilla et al., 1993; Mov. Disord. 8: 144-150) measuring the following symptoms: posture, mobility, climbing, gait, holding food, vocalizing, grooming, social interaction.

[3] = system: 3-NP treated rats; assay: Systemic 3-nitropropionic acid (3-NP) model in rats; assay type: in vivo, rat; settings: for nocturnal akinesia (hypoactivity): after four injections of 3-NP (late Huntington's disease); for nocturnal hyperactivity: after two injections of 3-NP (early Huntington's disease)
Text: A typical animal model is the systemic 3-nitropropionic acid (3-NP) model in rats according to C. V. Borlongan et al., Brain Res., 1995; 697: 254-257. […] After two injections of 3-NP, rats display nocturnal hyperactivity reflecting symptoms of early Huntington's disease, whereas rats treated with four injections of 3-NP display nocturnal akinesia (hypoactivity) reflecting symptoms of late Huntington's disease. Nocturnal activity is automatically measured in conventional acitivity cages by infrared beams.

[4] = system: patients with Huntington's disease; assay: Trial in patients with Huntington's disease; assay type: in vivo, human; settings: add on, 2.5 to 20 mg b.i.d., vs placebo
Protocol: A typical trial to establish the effect of the compounds according to the invention on chorea, voluntary motor performance, and functional disability in patients with Huntington's disease encompasses 32 genetically diagnosed patients. […] The dose of blinded medication is titrated over a period of 3 weeks in a range from 2.5 to 20 mg b.i.d. Then the medication is held constant for 1 week. Assessments are performed in the week before and at the last day of the trial. Chorea is scored using the abnormal involuntary movement scale (AIMS, W. Guy, in: ECDEU assessment manual. Rockville Md.: US dept. of health, education and welfare, 1976: 534-537), the unified Huntington's disease rating scale (UHDRS, Huntington study group, 1996, Movement Disord, 11: 136-42), and judgement of video recordings. Voluntary motor performance is assessed using the UHDRS motor scale. Patients and their partners complete a questionnaire regarding functional disability.

[5] = system: genetically dystonic hamsters; assay: Mutant dystonic hamster; settings: in vivo
Text: A typical animal model is the mutant dystonic hamster according to A. Richter and […], Prog. Neurobiol. 1998; 54: 633-677. In this genetically dystonic hamsters, dystonic attacks are provoked by taking the animal from the home cage and placing it on a balance. The dystonic syndrome consists of a sequence of abnormal movements, and the severity of the single symptoms is rated by a scoring system.

[6] = system: rats; assay: Induction of catalepsy in rats (extrapyramidal motor side effects); assay type: in vivo, rat; settings: doses up to 500fold higher compared to the doses effective in the animal models
Protocol: (§1) Extrapyramidal motor side effects in e.g. rodents are measured by the ability of a drug to induce catalepsy. Catalepsy is defined as a state where an animal continues to remain in an unnormal (nonphysiological ‘uncomfortable’) posture for a long time (e.g.: M. E. Stanley and S. D. Glick, Neuropharmacology, 1996; 15: 393-394; C. J. E. Niemegeers and P. Janssen, Life Sci., 1979, […]). For example, if a hindpaw of a rat is placed on an elevated level, e.g. a platform elevated 3 cm above ground level, a normal rat immediately withdraws the hindpaw from the platform to the ground level. A cataleptic rat remains in this unnatural posture even for minutes.

[7] = system: rats after cardiac arrest; assay: Posthypoxic myoclonus in rats; settings: rat, in vivo
Protocol: A typical animal model for myoclonus is myoclonus induced by an acute hypoxic episode according to D. D. Truong et al., Mov. Dsiord., 1994; 9: 201-206). In this model of posthypoxic myoclonus, rats undergo a cardiac arrest for 8 minutes and are resuscitated thereafter. Myoclonic jerks occur spontaneously but can be provoked by auditory stimulation, too, worsening over the days following cardiac arrest.

[8] = system: Weaver mutant mouse; assay: Weaver mutant mouse (locomotor activity); settings: in vivo
Text: Typical genetic models in mutant animals are the Campus Syndrome in the Pietrain pig according to A. Richter et al. (Exp. Neurology, 1995; 134: 205-213) or the Weaver mutant mouse according to J. R. Simon and B. Ghetti (Mol. Neurobiol., 1994; 9: 183-189). In the Campus Syndrome model, these mutant pigs show a high-frequency tremor when standing and during locomotion, but not while lying at rest. Assessment of tremor is made by accelerometric recording. In the Weaver mutant mouse, degenerative cerebellar atrophy is fould in association with tremor, gait instability, and toppling over the sides after a few steps.

[9] = system: patients with cervical dystonia (spasmodic torticollis); assay: Double-blind, placebo-controlled study in cervical dystonia (TWSTRS); assay type: in vivo, human; settings: 2.5 mg to 20 mg b.i.d.
[10] = target: dopamine D3 receptor (Homo sapiens, UniProt P35462)
[11] = system: catalepsy induced by haloperidol; assay: Catalepsy induced by conventional antidopaminergic drugs such as haloperidol; assay type: in vivo, rat; settings: same dose-range as effective in the animal models
Protocol: as §1

[12] = target: T1, 5-HT1A receptor (Homo sapiens, UniProt P08908); settings: compared with buspirone (IC50 […] nmol/l)
T1 sequence (P08908 1-422): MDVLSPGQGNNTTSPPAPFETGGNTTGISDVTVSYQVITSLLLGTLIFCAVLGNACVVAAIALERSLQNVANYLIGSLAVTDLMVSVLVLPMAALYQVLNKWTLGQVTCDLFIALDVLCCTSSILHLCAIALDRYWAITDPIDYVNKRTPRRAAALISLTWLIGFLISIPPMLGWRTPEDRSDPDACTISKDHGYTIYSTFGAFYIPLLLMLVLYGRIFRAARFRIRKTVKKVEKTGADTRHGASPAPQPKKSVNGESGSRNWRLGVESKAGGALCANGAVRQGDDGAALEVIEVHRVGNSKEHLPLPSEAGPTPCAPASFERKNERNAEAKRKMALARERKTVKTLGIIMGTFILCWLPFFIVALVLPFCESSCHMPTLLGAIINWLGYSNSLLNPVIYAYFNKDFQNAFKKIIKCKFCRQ

dopamine D3 receptor, sequence (P35462 whole entry, species assumed): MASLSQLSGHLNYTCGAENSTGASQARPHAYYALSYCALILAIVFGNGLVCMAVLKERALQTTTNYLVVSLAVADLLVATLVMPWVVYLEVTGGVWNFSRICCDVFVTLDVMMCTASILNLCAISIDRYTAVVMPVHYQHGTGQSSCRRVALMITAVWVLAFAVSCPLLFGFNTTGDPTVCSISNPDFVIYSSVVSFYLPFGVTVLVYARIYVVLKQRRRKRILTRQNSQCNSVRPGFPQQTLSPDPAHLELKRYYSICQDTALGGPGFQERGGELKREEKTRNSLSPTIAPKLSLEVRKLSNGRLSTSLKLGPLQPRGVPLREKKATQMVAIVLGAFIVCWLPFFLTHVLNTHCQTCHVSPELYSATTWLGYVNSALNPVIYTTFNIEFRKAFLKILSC

Structure (SMILES)	extrapyramidal motor side effects (dystonia, dyskinesias, akathisia, bradykinesia; score) [1]	parkinsonian symptoms (Laval University Disability Scale) [2]	total activity [2]	nocturnal akinesia (hypoactivity) [3]	nocturnal hyperactivity [3]	voluntary and involuntary motor performance (AIMS, UHDRS, video) [4]	severity of dystonic symptoms (score) [5]	induction of catalepsy [6]	number of spontaneous and auditory-evoked myoclonic jerks [7]	locomotor activity [8]	TWSTRS scores [9]	affinity to the dopamine D3 receptor [10]	prevention of catalepsy induced by conventional antidopaminergic drugs [11]	reversal of already existing catalepsy induced by conventional antidopaminergic drugs such as haloperidol [11]	agonist potency at the 5-HT1A receptor in contrast to buspirone [12]
Fc1ccc(-c2cncc(CNC[C@@H]3CCc4ccccc4O3)c2)cc1 [(S)-(+)-2-[5-(4-fluorophenyl)-3-pyridylmethylaminomethyl]-chromane]	dose-dependently reduce the extrapyramidal motor side effects	reduced all the parkinsonian symptoms	increased total activity	reduce	reduce	significant improvement	dose-dependently reduce the severity of dystonic symptoms	do not induce any catalepsy	dose-dependently reduce the number of spontaneous and auditory-evoked myoclonic jerks	enhance locomotor activity	significant improvement	high affinity	able to prevent catalepsy	reverses already existing catalepsy	more potent agonists
Fc1ccc(-c2cncc(CNCC3CCc4ccccc4O3)c2)cc1 (racemic) [(R/S)-(−/+)-2-[5-(4-fluorophenyl)-3-pyridylmethylaminomethyl]-chromane]	dose-dependently reduce the extrapyramidal motor side effects	reduced all the parkinsonian symptoms	increased total activity	reduce	reduce	significant improvement	dose-dependently reduce the severity of dystonic symptoms	do not induce any catalepsy	dose-dependently reduce the number of spontaneous and auditory-evoked myoclonic jerks	enhance locomotor activity	significant improvement	high affinity	able to prevent catalepsy	reverses already existing catalepsy	more potent agonists
